Laboratory results: US20240101531A1, “PYRIDINAMINE DERIVATIVES AND THEIR USE AS POTASSIUM CHANNEL MODULATORS” (Xenon Pharmaceuticals Inc., priority 2022, published 2024)
Where a name gives a salt, the structure may show the parent alone.

target: human KV7.2/KV7.3 (Homo sapiens (Human), UniProt O43525+O43526); experiment: Potassium flux assay (IPG-2 AM dye); format: cell-based; details: TREX HEK 293 or HEK 293 cells expressing human KV7.2/KV7.3; arithmetic mean values
Procedure, shortened: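 EC50 from 16 concentrations (2-fold dilutions, top 30 μM), scaled between DMSO baseline and a known KV7.x modulator maximum. Signal is IPG-2 AM fluorescence (ex 530/em 558 nm) after 10 mM KCl challenge buffer addition, following 20 min room-temperature compound exposure of HEK 293 or TREX HEK 293 cells stably expressing human KV7.2/KV7.3.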

Compound | EC50 [µM]
Cc1ncc(Nc2nccc3cc(OCc4cn[nH]c4)ccc23)cn1 [Example 395, 6-((1H-pyrazol-4-yl)methoxy)-N-(2-methylpyrimidin-5-yl)isoquinolin-1-amine] | 1 to 10
Cc1ncc(Nc2nccc3cc(OCc4c[nH]nc4C)ccc23)cn1 [Example 396, 6-((3-methyl-1H-pyrazol-4-yl)methoxy)-N-(2-methylpyrimidin-5-yl)isoquinolin-1-amine] | < 1
N#CCn1cc(COc2ccc3c(Nc4ccc(Cl)nc4)nccc3c2)cn1 [Example 400, 2-(4-(((1-((6-chloropyridin-3-yl)amino)isoquinolin-6-yl)oxy)methyl)-1H-pyrazol-1-yl)acetonitrile] | < 1
O=C(Nc1ccc2c(Nc3ccc(Cl)nc3)nccc2c1)C1(CO)CC1 [Example 401, N-(1-((6-chloropyridin-3-yl)amino)isoquinolin-6-yl)-1-(hydroxymethyl)cyclopropane-1-carboxamide] | ≥ 30
FC(F)(F)CNc1cnc(Nc2ccc(Cl)nc2)c2[nH]ccc12 [Example 402, NF-(6-chloropyridin-3-yl)-N^4-(2,2,2-trifluoroethyl)-1H-pyrrolo[2,3-c]pyridine-4,7-diamine] | 1 to 10
Clc1ccc(Nc2ncc(NCc3ccccc3)c3cc[nH]c23)cn1 [Example 403, N^4-benzyl-N^7-(6-chloropyridin-3-yl)-1H-pyrrolo[2,3-c]pyridine-4,7-diamine] | 10 to 30
CC1(C)CC[C@@H](COc2ccc3c(Nc4ccc(Cl)nc4)nccc3c2)O1 [Example 405, (S)-N-(6-chloropyridin-3-yl)-6-((5,5-dimethyltetrahydrofuran-2-yl)methoxy)isoquinolin-1-amine] | 1 to 10
CC1(COc2ccc3c(Nc4ccc(Cl)nc4)nccc3c2)CCCO1 (stereo not shown) [Example 406, N-(6-chloropyridin-3-yl)-6-((2-methyltetrahydrofuran-2-yl)methoxy)isoquinolin-1-amine] | < 1
F[C@H]1C[C@H](Oc2ccc3c(Nc4ccc(Cl)nc4)nccc3c2)C1 [Example 408, N-(6-chloropyridin-3-yl)-6-((1r,3r)-3-fluorocyclobutoxy)isoquinolin-1-amine] | 1 to 10
Clc1ccc(Nc2nccc3cc(OC4CCC4)ccc23)cn1 [Example 411, N-(6-chloropyridin-3-yl)-6-cyclobutoxyisoquinolin-1-amine] | 1 to 10
FC1(F)CC(Oc2ccc3c(Nc4ccc(Cl)nc4)nccc3c2)C1 [Example 412, N-(6-chloropyridin-3-yl)-6-(3,3-difluorocyclobutoxy)isoquinolin-1-amine] | 1 to 10
F[C@@H]1C[C@H]1COc1ccc2c(Nc3ccc(Cl)nc3)nccc2c1 [Example 413, N-(6-chloropyridin-3-yl)-6-(((1S,2R)-2-fluorocyclopropyl)methoxy)isoquinolin-1-amine] | 1 to 10
Clc1ccc(Nc2nccc3cc(OCC4CCOC4)ccc23)cn1 (stereo not shown) [Example 415, N-(6-chloropyridin-3-yl)-6-((tetrahydrofuran-3-yl)methoxy)isoquinolin-1-amine] | < 1
CC1(C)CC[C@H](COc2ccc3c(Nc4ccc(Cl)nc4)nccc3c2)O1 [Example 416, (R)-N-(6-chloropyridin-3-yl)-6-((5,5-dimethyltetrahydrofuran-2-yl)methoxy)isoquinolin-1-amine] | 1 to 10
FC(F)COc1ccc2c(Nc3ccc(Cl)nc3)nccc2c1 [Example 417, N-(6-chloropyridin-3-yl)-6-(2,2-difluoroethoxy)isoquinolin-1-amine] | 1 to 10
O=C(NCC1CC1)c1ccc2c(Nc3ccc(Cl)nc3)nccc2c1 [Example 419, 1-((6-chloropyridin-3-yl)amino)-N-(cyclopropylmethyl)isoquinoline-6-carboxamide] | 10 to 30
CC1(C)CCC(COc2ccc3c(Nc4cnc(Cl)nc4)nccc3c2)O1 (stereo not shown) [Example 420] | 1 to 10
Cn1nccc1-c1ccc2c(Nc3ccc(Cl)nc3)nccc2c1 [Example 422, N-(6-chloropyridin-3-yl)-6-(1-methyl-1H-pyrazol-5-yl)isoquinolin-1-amine] | 1 to 10
Clc1ccc(Nc2nccc3cc(-c4cncnc4)ccc23)cn1 [Example 423, N-(6-chloropyridin-3-yl)-6-(pyrimidin-5-yl)isoquinolin-1-amine] | 10 to 30
Clc1ccc(Nc2nccc3cc(Cn4nccn4)ccc23)cn1 [Example 425, 6-((2H-1,2,3-triazol-2-yl)methyl)-N-(6-chloropyridin-3-yl)isoquinolin-1-amine] | 1 to 10
Clc1ccc(Nc2nccc3cc(Cc4ccccn4)ccc23)cn1 [Example 426, N-(6-chloropyridin-3-yl)-6-(pyridin-2-ylmethyl)isoquinolin-1-amine] | 1 to 10
Cc1ccc(Nc2nccc3cc(OCc4c[nH]nc4C)ccc23)cn1 [Example 427, 6-((3-methyl-1H-pyrazol-4-yl)methoxy)-N-(6-methylpyridin-3-yl)isoquinolin-1-amine formate] | < 1
N^8-(6-chloropyridin-3-yl)-N^3-((1-methyl-1H-pyrazol-4-yl)methyl)-1,7-naphthyridine-3,8-diamine [Example 251] | 1 to 10

Next, values leading:

EC50 [µM] | Compound
< 1 | Cn1cc(F)c(COc2ccc3c(Nc4ccc(Cl)nc4)nccc3c2)n1 [Example 397, N-(6-chloropyridin-3-yl)-6-((4-fluoro-1-methyl-1H-pyrazol-3-yl)methoxy)isoquinolin-1-amine formate]
≥ 30 | Cc1cc2ccccc2c(Nc2ccc(Cl)nc2)n1 [Example 398, N-(6-chloropyridin-3-yl)-3-methylisoquinolin-1-amine]
1 to 10 | COc1cnc2c(Nc3ccc(Cl)nc3)nccc2c1 [Example 399, N-(6-chloropyridin-3-yl)-3-methoxy-1,7-naphthyridin-8-amine]
< 1 | FC1(F)CC1COc1ccc2c(Nc3ccc(Cl)nc3)nccc2c1 (stereo not shown) [Example 404, N-(6-chloropyridin-3-yl)-6-((2,2-difluorocyclopropyl)methoxy)isoquinolin-1-amine]
1 to 10 | FC1(F)CC(COc2ccc3c(Nc4ccc(Cl)nc4)nccc3c2)C1 [Example 407, N-(6-chloropyridin-3-yl)-6-((3,3-difluorocyclobutyl)methoxy)isoquinolin-1-amine]
1 to 10 | FC(F)C(F)(F)COc1ccc2c(Nc3ccc(Cl)nc3)nccc2c1 [Example 409, N-(6-chloropyridin-3-yl)-6-(2,2,3,3-tetrafluoropropoxy)isoquinolin-1-amine]
10 to 30 | COc1ccc2c(Nc3ccc(Cl)nc3)ncc(OC)c2c1 [Example 410, N-(6-chloropyridin-3-yl)-4,6-dimethoxyisoquinolin-1-amine]
1 to 10 | F[C@H]1C[C@H]1COc1ccc2c(Nc3ccc(Cl)nc3)nccc2c1 [Example 414, N-(6-chloropyridin-3-yl)-6-(((1S,2S)-2-fluorocyclopropyl)methoxy)isoquinolin-1-amine]
10 to 30 | COCCNC(=O)c1ccc2c(Nc3ccc(Cl)nc3)nccc2c1 [Example 418]
1 to 10 | Clc1ccc(Nc2nccc3cc(N4CCCC4)ccc23)cn1 [Example 421, N-(6-chloropyridin-3-yl)-6-(pyrrolidin-1-yl)isoquinolin-1-amine]
1 to 10 | Clc1ccc(Nc2nccc3cc(-c4cc[nH]n4)ccc23)cn1 [Example 424, N-(6-chloropyridin-3-yl)-6-(1H-pyrazol-3-yl)isoquinolin-1-amine]
